Measurements: article PMC9779714, “Enhanced Therapeutic Effect of Optimized Melittin-dKLA, a Peptide Agent Targeting M2-like Tumor-Associated Macrophages in Triple-Negative Breast Cancer” (International Journal of Molecular Sciences, 2022)

Columns and labels:
red blood cells = test: Hemolysis assay on mouse red blood cells; assay type: cell-based, BALB/c mouse; details: mouse red blood cells in PBS, peptides 1-40 μM, 4 h at 37 °C, OD 450 nm of supernatant, 2% Triton X-100 positive control, mean of n = 3
Description: Melittin has been well-documented to have strong hemolytic effects. To diminish such adverse effects, several truncated melittin were synthesized and analyzed in vitro (Figure 2A). Mouse blood cells were treated with varying concentrations of peptides for 4 h, and the optical density was measured using a microplate reader.
Figure 2 Melittin fragments have fewer hemolytic effects than melittin. (A) Amino acid sequence of melittin and melittin-truncated peptide. (B) Hemolysis of red blood cells treated with FITC-conjugated melittin or FITC-conjugated melittin fragments at concentrations ranging from 1 μM to 40 μM and incubated at 37 °C for 4 h. […] The optical density of hemoglobin released supernatant was measured at 450 nm. […]
Figure 4 Characterization of the optimized hybrid peptide drug, PEG-melittin-dKLA 8-26. […] The optical density was measured at 490 nm. […] The optical density of hemoglobin released in the supernatant was measured at 450 nm. […]
Blood was collected from each BALB/c mouse. […] The optical density of the samples was measured at 450 nm using a microplate reader (Molecular Devices). The percentage of hemolysis was calculated using the following equation: hemolysis (%) = (OD450 nm sample − OD450 nm negative control)/(OD450 nm positive control − OD450 nm negative control) × 100%. All data are expressed as the mean ± SEM of three independent experiments.

[1] = test system: THP-1-derived M2 macrophages; test: Flow cytometry binding of FITC-conjugated peptides to M2 macrophages; assay type: cell-based, human; details: 100 nM FITC-conjugated peptides, 1 h, percentage of FITC-positive cells, n = 3
Description: To address the binding ability of truncated melittin peptides to M2 macrophages, fluorescein isothiocyanate (FITC)-conjugated peptides were synthesized and incubated with M2 macrophages, and the percentage of FITC-positive cells was measured using flow cytometry. […] Next, to confirm and compare the binding capabilities of melittin and melittin 8-26 to different macrophage lineages, including M0, M1, and M2, FITC-conjugated peptides were tested on each macrophage phenotype, and their binding capabilities were measured by flow cytometry. […]
Figure 3 Binding of melittin fragments to the THP-1-derived M2 macrophages. […] (A) Melittin or melittin fragment affinity for M2 macrophages was measured using flow cytometry. […] (B) The affinity of melittin or melittin 8-26 for macrophages was detected by flow cytometry. TEXT PRINTED IN THE PICTURE: (B) Melittin: M0: 21.78; M1: 17.22; M2: 46.02 | (B) Melittin 8-26: M0: 26.8; M1: 14.74; M2: 34.66 DOUBTS OF THE COPYIST ABOUT THIS PICTURE: Panel B: the tiny quadrant labels (UL 0.00, UR 0.00, and LL values such as about 78.22, 53.98, 73.20, 85.26, 65.34) are too small, blurred or partly hidden by the dots to read with certainty, so they are left out. / Panel B: no measure or unit is printed with the large quadrant numbers. […]

melittin
concentration at which hemolysis was observed (red blood cells): above 5 μM | binding affinity to M2 macrophages (in words) [1]: highest binding affinity
